Common to all, as to assay: inhibition of tumour cell growth, NCI panel, 48 h
Experiment [1] concerns HCT-116 colon.
Experiment [2] relates to IGROV1 ovarian.
The subject of experiment [3] is MDA-MB-231 breast.
Experiment [4] relates to MDA-MB-435.
Experiment [5] relates to NCI-H23 lung.
For experiment [6], the system named is OVCAR-3 ovarian.
Experiment [7] has as its system RXF 393 renal.
Experiment [8] relates to SK-MEL-5 melanoma.
For experiment [9], the system named is UACC-257 melanoma.
Experiment [10] has as its system DU-145 prostate.

Structures are written as SMILES. Several values for one entry are separate records, joined by “and”; a condition that tells them apart may be missing. Identical values can stand only once.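 Cultured in 96-well plates, cells were exposed to test compound for 48 hours across five concentrations. GI50 marks 50% less growth. The concentration for full growth arrest is given as TGI.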 Where only a bound is given, the exact number is not on record here.

As to `Cn1cc(-c2ccc(-c3ccc(C4=NC5(CC5)C(=O)N4C[C@@H]4CCN(C(=O)C5CC5)C4)cc3)cc2)cn1`, the GI50 is 11.7 µM in experiment [1]; 28.7 µM in experiment [2]; 11.2 µM in [3]; 10.4 µM in experiment [4]; 12.7 µM in [5]; 11.5 µM in experiment [6]. Further, the GI50 in experiment [7] is 15.9 µM; in [8] it was 2.46 µM; in experiment [9] it was 39.3 µM. Also, the TGI in [1] is > 100 µM; in experiment [2], > 100 µM; in experiment [3], 37.3 µM; in [4], 38.9 µM; in experiment [5], 41.8 µM; in [6], 28.1 µM. Moreover, the results for the TGI in experiment [7], in experiment [8] and in experiment [9] were 33.3 µM, 15.2 µM and > 100 µM, respectively.
Turning to `O=c1c(-c2ccccc2)coc2cc(OC/C(=N/O)c3ccccc3)ccc12`, the GI50 in experiment [10] is 29 µM; in [1] it was 11.2 µM; in experiment [2] it was 17.5 µM; in [3], 18.2 µM; in experiment [4], 20.5 µM; in [5], > 100 µM. Also, the values for the GI50 in [6], in experiment [8] and in experiment [9] were 24.7 µM, 10.9 µM and 3.03 µM, respectively. The TGI is 94.1 µM in experiment [10]; 68.6 µM in experiment [1]; > 100 µM in [2]; 43.7 µM in experiment [3]; > 100 µM in experiment [4]; > 100 µM in experiment [5]. For the same molecule, the TGI came out at 60.1 µM in experiment [6], 24.6 µM in experiment [8] and 9.03 µM in experiment [9].
Turning to `CC12CCC(Br)C(C)(C)C1CC=C1C(=O)OCC1O2` (stereo unspecified), the TGI in [10] is 25.7 µM; in experiment [1], > 44.5 µM; in [2], 17.7 µM; in experiment [3], 31.5 µM; in experiment [4], 35.6 µM; in experiment [5], 32 µM. Also, the TGI was 31.3 µM in experiment [6], 26.3 µM in experiment [7], > 100 µM in experiment [8] and 27 µM in [9].
In the case of `C[N+]1=C(/C=C\C=C\c2ccccc2)C(C)(C)c2ccccc21`, the GI50 in experiment [10] was 4.62 µM; in experiment [1], 3.3 µM; in experiment [2] it was 2.06 µM; in [3] it was 2.36 µM; in [4], 2.01 µM; in experiment [5], 2.83 µM. The GI50 is 1.08 µM in [6], 1.75 µM in experiment [7] and 1.69 µM in experiment [9]. Besides, the TGI was determined as 16.1 µM in experiment [10]; 13.2 µM in [1]; 8.2 µM in experiment [2]; 7.52 µM in experiment [3]; 5.17 µM in [4]; 11.5 µM in [5]. The TGI came to 2.81 µM in experiment [6], 3.62 µM in experiment [7] and 4.52 µM in experiment [9].
For the molecule `COc1ccc2c(c1)C(=O)c1c-2n(CCCI)c(=O)c2cc([N+](=O)[O-])ccc12`, the GI50 in experiment [10] was 0.0541 µM and 0.0341 µM; in experiment [1], 0.0721 µM and 0.0453 µM; in experiment [3], 12.9 µM and 22.9 µM; in experiment [4], 0.449 µM and 1.49 µM; in experiment [5] it was 0.16 µM and 0.119 µM; in [6], 1.08 µM and 2.99 µM. Further, the GI50 in experiment [7] was 0.319 µM and 0.789 µM; in experiment [8], 0.109 µM and 0.124 µM; in experiment [9], 0.914 µM and 4.13 µM. Moreover, the TGI in experiment [10] is 0.172 µM and 0.811 µM; in experiment [1], 1.02 µM and 1.94 µM; in experiment [2], 50 µM and 72.3 µM; in experiment [3] it was 50 µM and > 100 µM; in experiment [4] it was 5.43 µM and 16.5 µM; in experiment [5], 0.988 µM and 1.27 µM. The TGI in experiment [6] is 19.4 µM and 20.1 µM; in experiment [7], 3.57 µM and 13.8 µM; in experiment [8], 0.438 µM and 0.468 µM; in experiment [9], 17.4 µM and 37.9 µM.
Take `CCN1CCN(CC(=O)N2c3cccc4cccc(c34)N(C(=O)CN3CCN(CC)CC3)C2c2cn(-c3ccccc3)nc2-c2cccc([N+](=O)[O-])c2)CC1`: the GI50 in [10] is 1.96 µM; in experiment [1] it was 1.27 µM; in experiment [2] it was 1.62 µM; in experiment [3] it was 1.42 µM; in experiment [4] it was 1.86 µM; in experiment [5], 1.81 µM. In addition, the GI50 is 1.63 µM in experiment [6], 1.62 µM in experiment [7], 1.75 µM in [8] and 1.85 µM in [9]. In addition, the TGI in experiment [10] stood at 4.03 µM; in [1], 2.83 µM; in [2] it was 3.28 µM; in [3], 2.88 µM; in [4], 3.54 µM; in experiment [5], 3.59 µM. The TGI in experiment [6] turned out to be 3.24 µM; in experiment [7], 3.09 µM; in experiment [8] it was 3.21 µM; in experiment [9], 3.68 µM.
For the molecule `NCCCNCCCCNC(=O)C(O)NC(=O)CCCCCCN=C(N)N` (stereo unspecified), the GI50 is 2890 µM in experiment [10]; 1830 µM in experiment [1]; 2620 µM in [2]; > 2570 µM in experiment [3]; 1960 µM in experiment [4]; 2330 µM in experiment [5]. Besides, the GI50 is 1750 µM in [6], 3480 µM in [7], 1730 µM in experiment [8] and > 4100 µM in [9]. The TGI in experiment [10] was > 5000 µM; in experiment [1] it was 750 µM and > 4790 µM; in experiment [2], 750 µM and > 5000 µM; in [3], > 5000 µM; in experiment [4], > 3760 µM; in experiment [5], 750 µM and > 5000 µM. Besides, the TGI in experiment [6] was 750 µM and > 5000 µM; in [7], 750 µM and > 5000 µM; in experiment [8], > 750 µM and 2820 µM; in [9], > 5000 µM.
Take `COC(=O)CC[C@H](Cc1ccccc1)NC(=O)c1csc([C@@H](C[C@H](C(C)C)N(C)C(=O)[C@@H](NC(=O)[C@H]2CCCCN2C)C(C)C)OC(C)=O)n1`: the GI50 in experiment [10] was < 0.0025 µM; in [1], < 0.0025 µM; in [2], 0.00331 µM; in experiment [3], 0.0057 µM; in experiment [5], 0.00515 µM; in experiment [6], < 0.0025 µM. The GI50 in experiment [7] was < 0.0025 µM; in [8], < 0.0025 µM; in experiment [9], > 25 µM. Besides, the TGI in experiment [10], in experiment [1], in [2], in experiment [3], in experiment [5] and in experiment [6] was > 25 µM each time. Further, the TGI in experiment [7] is > 25 µM; in [8] it was 0.0984 µM; in experiment [9], > 25 µM.

The values above are taken from PubChem BioAssay (NCI).
